In ChEMBL document CHEMBL5726146, “Sulfone amide linked benzothiazole inhibitors of endothelial lipase” (2019) one finds IC50 data, which are given here for 17 compounds.

This experiment concerns the target T1, Endothelial lipase (Homo sapiens, UniProt Q9Y5X9).
T1 sequence (Q9Y5X9 whole entry): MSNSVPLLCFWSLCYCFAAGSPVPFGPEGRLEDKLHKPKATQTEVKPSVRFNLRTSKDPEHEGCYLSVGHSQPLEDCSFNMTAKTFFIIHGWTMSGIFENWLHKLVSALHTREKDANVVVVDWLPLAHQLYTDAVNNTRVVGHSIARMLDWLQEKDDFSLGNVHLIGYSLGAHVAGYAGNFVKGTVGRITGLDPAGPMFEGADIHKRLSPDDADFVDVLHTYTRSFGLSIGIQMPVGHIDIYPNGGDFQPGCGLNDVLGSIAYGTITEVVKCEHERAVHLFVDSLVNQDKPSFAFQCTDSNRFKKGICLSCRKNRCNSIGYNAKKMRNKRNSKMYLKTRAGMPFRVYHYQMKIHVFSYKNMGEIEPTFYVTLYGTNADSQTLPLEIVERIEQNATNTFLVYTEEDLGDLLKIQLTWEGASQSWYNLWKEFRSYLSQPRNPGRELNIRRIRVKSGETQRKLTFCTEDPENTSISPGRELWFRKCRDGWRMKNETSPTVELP
Briefly: Biological Activity: Endothelial lipase (EL) and hepatic lipase (HL) activities were measured using a fluorescent substrate, A10070, (Invitrogen, CA) doped into an artificial vesicle containing DMPG (Avanti Polar Lipids) as the excipient. Vesicles were prepared by combining 571 μL of 29 mM DMPG in a 1:1 mixture of MeOH and CHCl3 with 2000 μL of 1 mM A10070 in a 1:1 mixture of MeOH and CHCl3. The mixture was dried under nitrogen in multiple vials then resuspended in 20 mL total volume of 50 mM HEPES pH 8.0 buffer containing 50 mM NaCl and 0.2 mM EDTA. The sample was allowed to sit at room temperature for 15 min and then was sonicated 3×4 mins on ice with a Branson Sonicator using duty cycle 1. This preparation provides vesicles with a mole fraction of 0.11 for the FRET substrate.The enzymatic assay was measured using 384-well white Optiplates. Each well contained 20 μL of assay buffer (50 mM HEPES pH 8.0, 50 mM NaCl and 1 mM CaCl2) and 0.25 μL of a DMSO solution containing a compound of interest. EL or HL (10 μL) was added and allowed to incubate with the compound for 30 min at 37° C. The source of EL was conditioned media obtained from HT-1080 cells that were transformed using RAGE technology (Athersys) to overexpress endogenous EL, and HL was partially purified from conditioned media obtained from COS cells overexpressing HL. The reaction was started by the addition of 10 μL of a 1:10 dilution of vesicles. The final total reaction volume was […]. The reaction rates were measured on a Gemini plate reader with an excitation wavelength of 490 nm and an emission wavelength of 530 nm. Readings were taken over a period of 60 minutes, and the slope between 300 and 900 secs of the readout was used to calculate the rate of the reaction.
A word on the IC50: it is the concentration needed to halve the response being measured. On to `O=C(CNC(=O)C(c1nc2cc(F)c(-c3ccc(F)nc3)cc2s1)S(=O)(=O)c1ccccc1F)NC1CC1` (configuration not stated), for which the IC50 is 58 nM.

As to `CC(=O)Nc1ccc(-c2cc3sc(C(C(=O)NCC(=O)NC4CC4)S(C)(=O)=O)nc3cc2F)cc1` (configuration not stated), the IC50 is 9 nM. The value for `COCCS(=O)(=O)C(C(=O)NCC(=O)NC1CC1)c1nc2ccc(-c3cccnc3C(F)(F)F)cc2s1` (configuration not stated) was 37 nM; that for `COCCS(=O)(=O)C(C(=O)NCC(=O)NC1CC1)c1nc2c(F)cc(-c3cccnc3F)cc2s1` (configuration not stated) was 106 nM; that for `O=C(CNC(=O)C(c1nc2ccc(-c3cccnc3F)cc2s1)S(=O)(=O)c1ccccc1)NC1CC1` (configuration not stated) was 102 nM. The value for `COCCS(=O)(=O)C(C(=O)NCC(=O)NC1CC1)c1nc2cc(-c3ccc(OC(C)C)nc3)ccc2s1` (configuration not stated) was 11 nM; that for `CS(=O)(=O)C(C(=O)NCC(=O)NC1CC1)c1nc2cc(F)c(-c3ccc(=O)n(-c4ccccc4)c3)cc2s1` (configuration not stated) was 6 nM. Consider `CS(=O)(=O)C(C(=O)NCC(=O)NC1CC1)c1nc2cc(-c3ccccc3)c(F)cc2s1` (configuration not stated), for which the IC50 is 4 nM. In the case of `Cn1nccc1-c1cc2sc(C(C(=O)NCC(=O)NC3CC3)S(C)(=O)=O)nc2cc1F` (configuration not stated), the IC50 was 26 nM. Take `O=C(CNC(=O)C(c1nc2ccc(-c3ccc(F)nc3)cc2s1)S(=O)(=O)C1CCOCC1)NC1CC1` (configuration not stated): the IC50 is 47 nM. For `COCCS(=O)(=O)C(C(=O)NCC(=O)NC1CC1)c1nc2ccc(-c3ccc(N4CCCC4)nc3)cc2s1` (configuration not stated), the IC50 is 118 nM. Turning to `COCCS(=O)(=O)C(C(=O)NCC(=O)NC1CC1)c1nc2cc(F)c(-c3ccc4c(c3)CCN4)cc2s1` (configuration not stated), the IC50 was 3 nM. For `CS(=O)(=O)C(C(=O)NCC(=O)NC1CC1)c1nc2cc(F)c(-c3ccc4c(c3)CCCN4C(=O)Cc3c(F)cccc3F)cc2s1` (configuration not stated), the 50% inhibitory concentration (IC50) was 7 nM. For the compound `COCCS(=O)(=O)C(C(=O)NCC(=O)NC1CC1)c1nc2ccc(-c3ccc(C(N)=O)c(Cl)c3)cc2s1` (configuration not stated), the IC50 is 33 nM. With `C[C@H]1CN(C(=O)c2ccc(-c3ccc4nc(C(C(=O)NCC(=O)NC5CC5)S(C)(=O)=O)sc4c3)cc2)CCO1` (some centres not stated), the IC50 was 31 nM. With `COCCS(=O)(=O)C(C(=O)NCC(=O)NC1CC1)c1nc2cc(-c3ccc(C)nc3)ccc2s1` (configuration not stated), the IC50 was 34 nM.

`CS(=O)(=O)C(C(=O)NCC(=O)NC1CC1)c1nc2cc(F)c(-c3ccc(C(=O)NCCc4ccccc4)cc3)cc2s1` (configuration not stated): the IC50 is 1 nM.
